# Measured values published in patent US11207269B2, “Medical use of sPLA2 hydrolysable liposomes” (priority 2009, dated 2021).
# Experiments:
# [1] = tested on: human breast carcinoma cell line MT-3; test: Efficacy in mice: MT-3 breast xenografts on nude mice; assay type: in vivo, NMRI nude female mice; details: 4 mg/kg/inj. weekly i.v.; treated tumors divided with control tumors; Cisplatin at day 31, LiPlaCis at day 26
# Method: NMRI nude female mice (6-8 weeks) were inoculated subcutaneously into the left flank with 1*10^7 cells of the human breast carcinoma cell line MT-3. Only mice carrying exponentially growing tumors were selected for the study. […] Tumor growth was assessed three times a week by measuring two perpendicular diameters and tumor growth was normalized for differing starting sizes by calculating relative tumor volume. Body weight was measured three times a week. Blood samples were taken four days after the first injection to estimate white blood cells and thrombocytes by Coulter counter.
# [2] = comparison value for cisplatin, within 3 hours; cited from earlier work
smiles,measurement,setting,value
"N.N.[Cl][Pt][Cl] [Cisplatin, cisplatin]",Optimum T/C (%) [at day],[1],71%
same,urinary excretion,[2],above 90%
